Where a SMILES comes first, the peptide text is derived from it.

One series is described as follows: Peptide hydrogel formation, vial-inverting method. As to conditions: 60 mM peptide in ultrapure water; pH 6.5-8.5 (1 N NaOH), ultrasonication, standing 48 h; vial-inverting method; no gel at 30 mM. Format: physicochemical. More on the design: key to EXP / GELATION: 0: no hydrogel; 1: hydrogel. A digest of the protocol:
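Gelation judged by vial inversion, a non-flowing self-supporting sample counting as hydrogel, after 48 h standing. Peptide in water at 30 mM first, escalating to 60, 90 and 120 mM if no gel; pH set to 6.5–8.5 by stepwise 1 N NaOH, each step sonicated briefly.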
On to `CC(C)C[C@H](N)C(=O)N[C@H](C(=O)N[C@@H](Cc1ccccc1)C(=O)NCC(=O)O)C(C)C` [LVFG] (H-LVFG-OH), for which the State result is on record as “gel”.

`CSCC[C@H](NC(=O)[C@@H]1CCCN1)C(=O)N[C@@H](Cc1ccccc1)C(=O)N[C@@H](Cc1ccc(O)cc1)C(=O)O` [PMFY] (H-PMFY-OH): the State result is “gel”.

Staying with this series, now noted: 90 mM peptide in ultrapure water; pH 6.5-8.5 (1 N NaOH), ultrasonication, standing 48 h; vial-inverting method; no gel at lower concentrations.
On to `CC(C)C[C@H](N)C(=O)N[C@H](C(=O)N[C@@H](Cc1c[nH]c2ccccc12)C(=O)N[C@@H](Cc1ccccc1)C(=O)O)C(C)C` [LVWF] (H-LVWF-OH), for which the State entry was “gel”.

The series is the same for the next values; noted with them: 120 mM peptide (highest tested) in ultrapure water; pH 6.5-8.5 (1 N NaOH), ultrasonication, standing 48 h; vial-inverting method; precipitate, sol, suspension = no gel.
As to `CSCC[C@H](NC(=O)[C@H](CC(N)=O)NC(=O)[C@@H](NC(=O)CN)C(C)C)C(=O)O` [GVNM] (H-GVNM-OH), the State result is reported as “suspension”.

Turning to `CC(C)C[C@H](NC(=O)[C@H](C)NC(=O)[C@@H](N)CC(C)C)C(=O)N[C@@H](CCCNC(=N)N)C(=O)O` [LALR] (H-LALR-OH), the State result was “suspension”.

In the case of `N[C@@H](CO)C(=O)N[C@@H](Cc1c[nH]c2ccccc12)C(=O)N[C@@H](Cc1ccc(O)cc1)C(=O)N[C@@H](Cc1ccccc1)C(=O)O` [SWYF] (H-SWYF-OH), the State entry is on record as “gel”.

For `CC(C)C[C@H](NC(=O)[C@H](Cc1ccccc1)NC(=O)[C@@H](N)CS)C(=O)N[C@@H](Cc1c[nH]c2ccccc12)C(=O)O` [CFLW] (H-CFLW-OH), the State entry is listed as “suspension”.

For the compound `O=C(O)[C@@H]1CCCN1C(=O)[C@@H]1CCCN1C(=O)[C@@H]1CCCN1C(=O)[C@@H]1CCCN1` [PPPP] (H-PPPP-OH), the State entry was “suspension”.

Turning to `C[C@H](NC(=O)[C@@H](N)Cc1ccc(O)cc1)C(=O)N[C@@H](Cc1ccc(O)cc1)C(=O)N[C@@H](Cc1ccc(O)cc1)C(=O)O` [YAYY] (H-YAYY-OH), the State result was “sol”.

`N=C(N)NCCC[C@H](NC(=O)[C@H](CCCNC(=N)N)NC(=O)[C@H](CCCNC(=N)N)NC(=O)[C@@H](N)CCCNC(=N)N)C(=O)O` [RRRR] (H-RRRR-OH): the State result is recorded as “sol”.

For the compound `CC(C)C[C@H](N)C(=O)N[C@@H](Cc1ccccc1)C(=O)N[C@@H](Cc1c[nH]c2ccccc12)C(=O)N[C@@H](CO)C(=O)O` [LFWS] (H-LFWS-OH), the State result is given as “gel”.

Staying with this series, now noted: concentration at which the state was recorded: lowest of 30, 60, 90, 120 mM that gave a gel; 120 mM for non-gelating peptides.
As for `CSCC[C@H](NC(=O)[C@H](CC(N)=O)NC(=O)[C@@H](NC(=O)CN)C(C)C)C(=O)O` [GVNM] (H-GVNM-OH), the “Concentration” value came out at 120000 µM.

With `CC(C)C[C@H](NC(=O)[C@H](C)NC(=O)[C@@H](N)CC(C)C)C(=O)N[C@@H](CCCNC(=N)N)C(=O)O` [LALR] (H-LALR-OH), the “Concentration” value worked out at 120000 µM.

In the case of `N[C@@H](CO)C(=O)N[C@@H](Cc1c[nH]c2ccccc12)C(=O)N[C@@H](Cc1ccc(O)cc1)C(=O)N[C@@H](Cc1ccccc1)C(=O)O` [SWYF] (H-SWYF-OH), the “Concentration” value was found to be 120000 µM.

As to `CC(C)C[C@H](NC(=O)[C@H](Cc1ccccc1)NC(=O)[C@@H](N)CS)C(=O)N[C@@H](Cc1c[nH]c2ccccc12)C(=O)O` [CFLW] (H-CFLW-OH), the “Concentration” value turned out to be 120000 µM.

Turning to `CC(C)C[C@H](N)C(=O)N[C@H](C(=O)N[C@@H](Cc1c[nH]c2ccccc12)C(=O)N[C@@H](Cc1ccccc1)C(=O)O)C(C)C` [LVWF] (H-LVWF-OH), the “Concentration” value worked out at 90000 µM.

In the case of `O=C(O)[C@@H]1CCCN1C(=O)[C@@H]1CCCN1C(=O)[C@@H]1CCCN1C(=O)[C@@H]1CCCN1` [PPPP] (H-PPPP-OH), the “Concentration” value turned out to be 120000 µM.

As for `C[C@H](NC(=O)[C@@H](N)Cc1ccc(O)cc1)C(=O)N[C@@H](Cc1ccc(O)cc1)C(=O)N[C@@H](Cc1ccc(O)cc1)C(=O)O` [YAYY] (H-YAYY-OH), the “Concentration” value was 120000 µM.

In the case of `N=C(N)NCCC[C@H](NC(=O)[C@H](CCCNC(=N)N)NC(=O)[C@H](CCCNC(=N)N)NC(=O)[C@@H](N)CCCNC(=N)N)C(=O)O` [RRRR] (H-RRRR-OH), the “Concentration” value was found to be 120000 µM.

Regarding `CC(C)C[C@H](N)C(=O)N[C@@H](Cc1ccccc1)C(=O)N[C@@H](Cc1c[nH]c2ccccc12)C(=O)N[C@@H](CO)C(=O)O` [LFWS] (H-LFWS-OH), the “Concentration” value amounted to 120000 µM.

For `CC(C)C[C@H](N)C(=O)N[C@H](C(=O)N[C@@H](Cc1ccccc1)C(=O)NCC(=O)O)C(C)C` [LVFG] (H-LVFG-OH), the “Concentration” value was determined as 60000 µM.

On to `CSCC[C@H](NC(=O)[C@@H]1CCCN1)C(=O)N[C@@H](Cc1ccccc1)C(=O)N[C@@H](Cc1ccc(O)cc1)C(=O)O` [PMFY] (H-PMFY-OH), for which the “Concentration” value stood at 60000 µM.

The series is the same for the next values; noted with them: peptide concentration 60 mM; vial-inverting method; 1 = hydrogel, 0 = no hydrogel.
`CC(C)C[C@H](N)C(=O)N[C@H](C(=O)N[C@@H](Cc1ccccc1)C(=O)NCC(=O)O)C(C)C` [LVFG] (H-LVFG-OH) yielded a GELATION of 1.

As to `CSCC[C@H](NC(=O)[C@@H]1CCCN1)C(=O)N[C@@H](Cc1ccccc1)C(=O)N[C@@H](Cc1ccc(O)cc1)C(=O)O` [PMFY] (H-PMFY-OH), the GELATION came to 1.

Still in this series, the particulars now being: peptide concentration 90 mM; vial-inverting method; 1 = hydrogel, 0 = no hydrogel.
Turning to `CC(C)C[C@H](N)C(=O)N[C@H](C(=O)N[C@@H](Cc1c[nH]c2ccccc12)C(=O)N[C@@H](Cc1ccccc1)C(=O)O)C(C)C` [LVWF] (H-LVWF-OH), the GELATION was 1.

Still in this series, the particulars now being: peptide concentration 120 mM; vial-inverting method; 1 = hydrogel, 0 = no hydrogel.
The compound `CSCC[C@H](NC(=O)[C@H](CC(N)=O)NC(=O)[C@@H](NC(=O)CN)C(C)C)C(=O)O` [GVNM] (H-GVNM-OH) yielded a GELATION of 0.

As to `CC(C)C[C@H](NC(=O)[C@H](C)NC(=O)[C@@H](N)CC(C)C)C(=O)N[C@@H](CCCNC(=N)N)C(=O)O` [LALR] (H-LALR-OH), the GELATION stood at 0.

For the compound `N[C@@H](CO)C(=O)N[C@@H](Cc1c[nH]c2ccccc12)C(=O)N[C@@H](Cc1ccc(O)cc1)C(=O)N[C@@H](Cc1ccccc1)C(=O)O` [SWYF] (H-SWYF-OH), the GELATION worked out at 1.

In turn, `CC(C)C[C@H](NC(=O)[C@H](Cc1ccccc1)NC(=O)[C@@H](N)CS)C(=O)N[C@@H](Cc1c[nH]c2ccccc12)C(=O)O` [CFLW] (H-CFLW-OH) gave a GELATION of 0.

The compound `O=C(O)[C@@H]1CCCN1C(=O)[C@@H]1CCCN1C(=O)[C@@H]1CCCN1C(=O)[C@@H]1CCCN1` [PPPP] (H-PPPP-OH) returned a GELATION of 0.

Take `C[C@H](NC(=O)[C@@H](N)Cc1ccc(O)cc1)C(=O)N[C@@H](Cc1ccc(O)cc1)C(=O)N[C@@H](Cc1ccc(O)cc1)C(=O)O` [YAYY] (H-YAYY-OH): the GELATION is 0.

Regarding `N=C(N)NCCC[C@H](NC(=O)[C@H](CCCNC(=N)N)NC(=O)[C@H](CCCNC(=N)N)NC(=O)[C@@H](N)CCCNC(=N)N)C(=O)O` [RRRR] (H-RRRR-OH), the GELATION stood at 0.

`CC(C)C[C@H](N)C(=O)N[C@@H](Cc1ccccc1)C(=O)N[C@@H](Cc1c[nH]c2ccccc12)C(=O)N[C@@H](CO)C(=O)O` [LFWS] (H-LFWS-OH) registered a GELATION of 1.

The nature of a further series: Transmission electron microscope (negative staining) of peptide assemblies. As to conditions: TEM, negative staining with uranyl acetate, 120 kV; line of the table gives 60 mM.
Procedure: We used the negative staining technique to observe the morphologies formed by peptides. A micropipette was used to load 10 μL of sample solution to a carbon-coated copper grid, and we used a piece of filter paper to remove the excess solution. After rinsing the grid with the deionized water, we used uranyl acetate to stain the sample for 1 minute and then rinsed the grid with deionized water again.
Take `CC(C)C[C@H](N)C(=O)N[C@H](C(=O)N[C@@H](Cc1ccccc1)C(=O)NCC(=O)O)C(C)C` [LVFG] (H-LVFG-OH): the Morphology entry is given as “aggregates”.

In the case of `CSCC[C@H](NC(=O)[C@@H]1CCCN1)C(=O)N[C@@H](Cc1ccccc1)C(=O)N[C@@H](Cc1ccc(O)cc1)C(=O)O` [PMFY] (H-PMFY-OH), the Morphology entry is on record as “sheet”.

The same series, now with this note: TEM, negative staining with uranyl acetate, 120 kV; line of the table gives 90 mM.
On to `CC(C)C[C@H](N)C(=O)N[C@H](C(=O)N[C@@H](Cc1c[nH]c2ccccc12)C(=O)N[C@@H](Cc1ccccc1)C(=O)O)C(C)C` [LVWF] (H-LVWF-OH), for which the Morphology result is recorded as “needle”.

The series is the same for the next values; noted with them: TEM, negative staining with uranyl acetate, 120 kV; line of the table gives 120 mM.
Consider `CSCC[C@H](NC(=O)[C@H](CC(N)=O)NC(=O)[C@@H](NC(=O)CN)C(C)C)C(=O)O` [GVNM] (H-GVNM-OH), for which the Morphology result was “sphere”.

Turning to `CC(C)C[C@H](NC(=O)[C@H](C)NC(=O)[C@@H](N)CC(C)C)C(=O)N[C@@H](CCCNC(=N)N)C(=O)O` [LALR] (H-LALR-OH), the Morphology result is “aggregates”.

As for `N[C@@H](CO)C(=O)N[C@@H](Cc1c[nH]c2ccccc12)C(=O)N[C@@H](Cc1ccc(O)cc1)C(=O)N[C@@H](Cc1ccccc1)C(=O)O` [SWYF] (H-SWYF-OH), the Morphology entry is recorded as “fibre”.

As to `CC(C)C[C@H](NC(=O)[C@H](Cc1ccccc1)NC(=O)[C@@H](N)CS)C(=O)N[C@@H](Cc1c[nH]c2ccccc12)C(=O)O` [CFLW] (H-CFLW-OH), the Morphology result is recorded as “aggregates”.

For the compound `O=C(O)[C@@H]1CCCN1C(=O)[C@@H]1CCCN1C(=O)[C@@H]1CCCN1C(=O)[C@@H]1CCCN1` [PPPP] (H-PPPP-OH), the Morphology result was “particle”.

Turning to `C[C@H](NC(=O)[C@@H](N)Cc1ccc(O)cc1)C(=O)N[C@@H](Cc1ccc(O)cc1)C(=O)N[C@@H](Cc1ccc(O)cc1)C(=O)O` [YAYY] (H-YAYY-OH), the Morphology entry is recorded as “aggregates”.

In the case of `N=C(N)NCCC[C@H](NC(=O)[C@H](CCCNC(=N)N)NC(=O)[C@H](CCCNC(=N)N)NC(=O)[C@@H](N)CCCNC(=N)N)C(=O)O` [RRRR] (H-RRRR-OH), the Morphology result is recorded as “aggregates”.

Turning to `CC(C)C[C@H](N)C(=O)N[C@@H](Cc1ccccc1)C(=O)N[C@@H](Cc1c[nH]c2ccccc12)C(=O)N[C@@H](CO)C(=O)O` [LFWS] (H-LFWS-OH), the Morphology result is “sphere”.

Staying with this series, now noted: aqueous solution or hydrogel; negative staining.
With `N=C(N)NCCC[C@H](NC(=O)[C@H](CCCNC(=N)N)NC(=O)[C@H](CCCNC(=N)N)NC(=O)[C@@H](N)CCCNC(=N)N)C(=O)O` [RRRR] (H-RRRR-OH), the “morphology by TEM (in words)” value was “aggregates with different sizes”.

For the origin of these results see publication PMC10313671, “Accelerating the prediction and discovery of peptide hydrogels with human-in-the-loop” (Nature Communications, 2023).
